Data: PubChem BioAssay (NCI)
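Five compound concentrations were applied to cells in 96-well plates for 48 hours; endpoints were derived by simple linear interpolation of the resulting dose-response curve. TGI denotes the concentration required for complete inhibition of growth.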

Columns and labels:
Experiment in all cases: inhibition of tumour cell growth, NCI panel, 48 h
OVCAR-8 ovarian = test system: OVCAR-8 ovarian
RXF 393 renal = test system: RXF 393 renal
U251 CNS = test system: U251 CNS
A549 NSCLC = test system: A549 NSCLC
HL-60(TB) leukemia = test system: HL-60(TB) leukemia
OVCAR-4 ovarian = test system: OVCAR-4 ovarian
NCI-H23 lung = test system: NCI-H23 lung
MALME-3M melanoma = test system: MALME-3M melanoma
IGROV1 ovarian = test system: IGROV1 ovarian
NCI-H460 lung = test system: NCI-H460 lung
UACC-257 melanoma = test system: UACC-257 melanoma
LOX IMVI melanoma = test system: LOX IMVI melanoma
HCT-116 colon = test system: HCT-116 colon
TK-10 renal = test system: TK-10 renal
BT-549 breast = test system: BT-549 breast
RPMI-8226 leukemia = test system: RPMI-8226 leukemia
HT29 colon = test system: HT29 colon
SF-268 CNS = test system: SF-268 CNS
MDA-N = test system: MDA-N
M14 melanoma = test system: M14 melanoma
SK-OV-3 ovarian = test system: SK-OV-3 ovarian
T-47D breast = test system: T-47D breast
OVCAR-5 ovarian = test system: OVCAR-5 ovarian
CAKI-1 renal = test system: CAKI-1 renal
COLO 205 colon = test system: COLO 205 colon
MOLT-4 leukemia = test system: MOLT-4 leukemia
KM12 colon = test system: KM12 colon
HOP-62 NSCLC = test system: HOP-62 NSCLC
HOP-92 NSCLC = test system: HOP-92 NSCLC
ACHN renal = test system: ACHN renal
SK-MEL-5 melanoma = test system: SK-MEL-5 melanoma
PC-3 prostate = test system: PC-3 prostate
OVCAR-3 ovarian = test system: OVCAR-3 ovarian
NCI-H522 lung = test system: NCI-H522 lung
HCC-2998 colon = test system: HCC-2998 colon
DU-145 prostate = test system: DU-145 prostate
NCI-H226 lung = test system: NCI-H226 lung
SNB-19 CNS = test system: SNB-19 CNS
SK-MEL-28 melanoma = test system: SK-MEL-28 melanoma
MCF7 breast = test system: MCF7 breast
MDA-MB-435 = test system: MDA-MB-435
SK-MEL-2 melanoma = test system: SK-MEL-2 melanoma
EKVX NSCLC = test system: EKVX NSCLC
HCT-15 colon = test system: HCT-15 colon
UO-31 renal = test system: UO-31 renal
CCRF-CEM leukemia = test system: CCRF-CEM leukemia
SF-539 CNS = test system: SF-539 CNS
786-0 renal = test system: 786-0 renal
K-562 leukemia = test system: K-562 leukemia
SW-620 colon = test system: SW-620 colon
SF-295 CNS = test system: SF-295 CNS
SNB-75 CNS = test system: SNB-75 CNS
A498 renal = test system: A498 renal
HS 578T breast = test system: HS 578T breast
UACC-62 melanoma = test system: UACC-62 melanoma
SR leukemia = test system: SR leukemia
SN12C renal = test system: SN12C renal
MDA-MB-231 breast = test system: MDA-MB-231 breast

Measured: TGI

CC(=O)OCC12C(OC(C)=O)C(=O)C3C(OC(C)=O)C14OC3(C)COC(=O)c1cccnc1C(C)C(C)C(=O)OC(C(OC(C)=O)C2OC(C)=O)C4(C)O (stereo not drawn)
> 100 µM: all assays above
